# In a melting point compilation (Tetko et al.; mined from patent text by program, amines drawn as free bases though some values may be those of a salt):
row,melting point [°C],SMILES
1,165 to 166,COc1cc2c(cc1O)CCN(Cc1cccnc1)C2
2,94 to 96,CCOC(=O)NN=C(C)c1cccc(C(F)(F)F)c1
3,127 to 128,COC(=O)C(=C(C)C)N1CC(N2C(=O)c3ccccc3C2=O)C1=O (configuration not stated)
4,175 to 176,CCCc1nc(-n2c(C)ccc2C)c(C(=O)OC)[nH]1
5,213 to 214,CC(=O)NCc1cccc(Nc2nccc(-c3sc(N(C)c4cc(Cl)cc(Cl)c4)nc3C)n2)c1
6,307 to 310,CCCn1c(=O)c2c(NC)n[nH]c2n(Cc2ccccc2)c1=O
7,245 to 247,Oc1ccc(-c2[nH]c3ccccc3c2Cn2ccnc2)cc1
8,186 to 187,COC(=O)c1ccccc1S(=O)(=O)NC(=O)Nc1nnc(SC)n(C)c1=O
9,220 to 221,COc1ccc(C)cc1NC(=O)Nc1ccc(N2CCN(c3ncccn3)CC2)cc1
10,210 to 212,Nc1nc(-c2ccccc2OCC(F)(F)F)[nH]c(=O)c1N=O
11,245 to 247,NS(=O)(=O)c1cc(C(=O)O)cc([N+](=O)[O-])c1Sc1ccccc1
12,80 to 82,CN(C)CCNC(=O)c1cc(Oc2ccc3c(C(=O)Nc4cccc(C(F)(F)F)c4)cccc3c2)ccn1
13,118,C/C(=N\O)c1cccc(NC(=O)NCC(=O)N2[C@@H](C(=O)OC(C)(C)C)CC[C@H]2c2ccccc2)c1 (racemic)
14,140 to 141,CCCC(=O)c1ccc(OCCN2CCN(c3cc(Cl)nnc3Cl)CC2)cc1
15,254 to 256,CNC1N=CN(c2c(C)cccc2Cl)C(=O)N1 (configuration not stated)
16,> 250,Cc1cn2nc(-c3ccccc3)nc2cc1N
17,165,CC(C)C(=O)c1ccc(OCc2ccc(CNC(=O)c3cn(C)cn3)cc2)c(C(F)(F)F)c1O
18,218 to 222,CCOc1c(Nc2ccc(C#N)cc2)c(=O)c1=O
19,234,O=C(c1cccnc1)N1CCC(c2nc(-c3cnc(-c4ccccc4)nc3)c[nH]2)CC1
20,39 to 43,CC(OCc1ccc2ccccc2c1)(C(=O)Cl)C(F)(F)F (configuration not stated)
21,131 to 135,CCCCCCCCCCCCCSc1nnc(NC(=O)Nc2c(C(C)C)cccc2C(C)C)[nH]1
22,214 to 216,CCOC(=O)c1cnc2sc(Br)c(C)c2c1O
23,> 300,Nc1cccc(Nc2ncnc3[nH]cc(C(=O)c4ccccc4)c23)n1
24,179 to 180,CC(=O)Nc1ccc(SCC(=O)NCC(=O)N(C)c2ccc(Cl)c(COc3cccc4ccc(C)nc34)c2Cl)cc1
25,105 to 107,NNC(=O)NCCSSc1ccccn1
26,93 to 95,CNC(=O)N(C)C(=O)Nc1ccccc1

row,melting point [°C],SMILES
1,58 to 67,COC(=O)CC(NC(C)=O)c1ccccc1 (configuration not stated)
2,116 to 118,COC(=O)c1ccc(C(=O)N2CCN(c3ncccc3NC(C)C)CC2)cc1
3,244 to 246,N#CCc1ccc2ncc(C(=O)NCc3ccc(Cl)cc3)c(O)c2c1
4,207 to 208,CC(=O)c1cnc(-c2ccccc2)c(-c2ccc(=O)n(C(C)C)n2)c1
5,136 to 138,C=CC(NC(C)=O)C(=O)NCc1ccccc1 (configuration not stated)
6,135,CN1C(=O)C(c2ccc(OCCF)cc2)(c2ccc(F)c(-c3cccnc3F)c2)N=C1N (configuration not stated)
7,158 to 159,NS(=O)(=O)c1ccc(-c2oc(Cl)nc2-c2ccccc2)cc1
8,122 to 124,CNc1nc(Br)cc(Sc2ccccc2)n1
9,127 to 130,O=Cc1c(O)ccc2cccnc12
10,104 to 106,Clc1cc(-c2csc(Cc3ccccc3)n2)ccn1
11,74 to 75,CN(Cc1cccs1)C(=O)C1CC2C=CC1C2 (configuration not stated)
12,109 to 111,CN(C)C(=O)c1c(Oc2ccccc2)cccc1Oc1ccccc1
13,183 to 184,CCOC(=O)c1sc2cccc(O)c2c1C
14,175 to 177,O=C(c1c[nH]c(C(=O)CCl)c1)c1ccc2ccccc2c1
15,229 to 234,CCCCCOc1ccc(C=C2SC(=S)N(CC(=O)O)C2=O)cc1OCc1ccccc1
16,139 to 140,CCCC/C(=C\C(=O)O)c1cc(OC)c(O)c2c(CC)cccc12
17,211,CC(C)n1cc(-c2nc(C#N)c(N)nc2-c2ccccc2F)ccc1=O
18,184 to 187,C=CCOc1ccc2nc(S(N)(=O)=O)sc2c1
19,148 to 150,CCOC(=O)Cn1c(CC)nc2c(O)cccc21
20,129 to 131,CCOC(=O)CCc1cc(OCC(=O)O)nn1Cc1ccc(Cl)cc1Cl
21,165 to 167,O=C1c2cccc(OCc3ccccc3)c2-c2nn(CCNCCO)c3ccc(Cl)c1c23
22,83 to 83.5,CCOC(=O)CC(=O)CC(O)C=Cc1c(C)c(OCc2ccccc2)c(C)c2c1OC(C)(C)CC2 (configuration not stated)
23,221 to 223,COC(=O)Nc1cn2ccc(Sc3ccccc3)cc2n1
24,209 to 210,O=C(Nc1cccc([N+](=O)[O-])c1)NC1CC(C(=O)O)Nc2cc(Cl)cc(Cl)c21 (configuration not stated)
25,283 to 285,COc1ccc(Cl)cc1NC(=O)NCc1ccc2c(c1)CN(C1CCC(=O)NC1=O)C2=O (configuration not stated)

# Second part, the compound before the results:
row,SMILES,melting point [°C]
1,CON(C)C(=O)Nc1ccc(CN2OCCC(C)(C)C2=O)c(Cl)c1,116 to 118
2,Oc1cc(Cl)cc2c1CCC2,56 to 59
3,CN1C(=O)CCC1(O)c1cccc(C(F)(F)F)c1 (configuration not stated),137 to 139
4,CCCCc1oc2ccccc2c1C(=O)Nc1ccc2c(Br)c(OC(Cc3ccccc3)C(=O)O)ccc2c1 (configuration not stated),191 to 195
5,O=S=c1cc(-c2ccc(O)cc2)ss1,118 to 124
6,CCCC1CCC(C2CC3(C2)CC(C(F)(F)Oc2cc(F)c(F)c(F)c2)C3)CC1 (configuration not stated),43
7,Cc1nc(-c2cccc(CN(C(=O)Nc3ccc(-c4ccccc4S(=O)(=O)NC(C)(C)C)cc3)c3ccccc3)c2)no1,191 to 192
8,CCc1nc(/C=C/c2cn(-c3ccccc3)nc2OCc2ccc(OCc3nc(-c4ccc(CC(=O)O)cc4)oc3C)c(OC)c2)cs1,123 to 124
9,NCCc1ccc(OCc2ccccc2)cc1,58.7 to 59.6
10,Cc1c(S(=O)c2cc(Cl)c(Cl)cc2Cl)cc(C(C)(C)C)c(O)c1C(=O)Nc1ccc([N+](=O)[O-])cc1C(F)(F)F (configuration not stated),234 to 235
11,Cc1c(O)c(=O)ccn1CCO,164 to 165
12,CN1CCn2nc(Nc3cc(Cl)nn(COCC[Si](C)(C)C)c3=O)cc2C1,68 to 69
13,CCCC(=O)Nc1nc(=O)n(C2OC(C)C(O)C2O)cc1F (configuration not stated),156 to 157
14,COc1ccc(CC(NC(c2ccccc2)c2ccccc2)P(O)O)cc1OC (configuration not stated),205
15,O=C(NC1CCCCC1)OC1c2nccnc2C(=O)N1c1ccc2ccc(Cl)nc2n1 (configuration not stated),264
16,O=[N+]([O-])c1ccc(Oc2ccc3c(c2)Nc2ccccc2S3)cc1,210 to 211
17,COc1ccc(-n2cc(C(=O)O)c(=O)c3cc(F)c(F)cc32)cc1,256 to 258
18,COc1ccc(C2=NN(C3CCN(S(=O)(=O)Cc4ccccc4)CC3)C(=O)CC2)cc1OC,114
19,Brc1ccc2c(ccn2Cc2ccccc2)c1,90
20,Cc1cccc(-c2nc3ccccn3c2-c2ccnc(-c3ccc(N4CCOCC4)cc3)c2)n1,190
21,CCOC(=O)c1c(C2CCN(C)CC2)[nH]c(-c2ccc(F)c(F)c2)c1-c1ccncc1,262 to 265
22,CC1(C)C(=O)Nc2ccc(-c3cccc(Cl)c3)cc21,188 to 189
23,CN(C)c1ccc(/C=C/c2c(F)cccc2F)c([N+](=O)[O-])c1,152 to 153
24,COc1nc(N)nc2c1ncn2[C@@H]1O[C@H](CO)[C@@H](O)[C@@]1(C)F,199 to 202
25,O=[N+]([O-])c1cc(C(O)CCN2CC=C(c3ccc(Cl)cc3)CC2)ccc1F (configuration not stated),154 to 156
26,CN1C(=O)N(c2nnc(C(C)(C)C)s2)C(=O)C1O (configuration not stated),163 to 164

row,SMILES,melting point [°C]
1,CCOC(=O)C1=C(C)Nc2nc(N)nc(N)c2C1c1ccc(OC)cc1 (configuration not stated),98
2,CCCCc1ccc(S(=O)(=O)Nc2cc(C)on2)s1,96.5 to 101
3,O=C1OC(Cc2ccc3c(c2)OCO3)CN1c1ccccc1 (configuration not stated),110 to 111
4,CN(C)c1ccc(/C=C\c2ccc3c(=O)[nH]ncc3c2)cc1,312 to 318
5,COc1nc2cc([N+](=O)[O-])cc(C)c2nc1OC,167 to 168
6,CN1CC2CCCC(C1)C2=NO,111 to 112
7,CCNC1=CC(=O)c2c(OC)ccc(OC)c2C1=O,172 to 173
8,Ic1ccc(-c2ccc(I)s2)s1,164
9,CCn1c(=O)c2[nH]c(/C=C/c3cc(C)ccc3C)nc2n(CC)c1=O,282
10,Cc1cc(Oc2ccc(C(=O)O)cc2)ccc1[N+](=O)[O-],187 to 190
11,CCOC(=O)c1cn2c3c(c(Br)c(F)cc3c1=O)OCC2C (configuration not stated),> 250
12,CCCn1cnc2c(=O)[nH]c(N)nc21,> 300
13,Cc1[nH]c(=O)sc1C(=O)c1ccc(N(C)C)cc1,224 to 226
14,CCC(C=O)c1ccc(S(C)(=O)=O)cc1 (configuration not stated),202 to 204
15,O=C(Oc1cc(F)ccc1[N+](=O)[O-])c1cc2cc(CCl)ccc2oc1=O,205 to 208
16,COc1ccc(Nc2nc(-c3ccncc3)nc3ccccc23)cc1Cl,> 220
17,C[C@H]1C=CC2=C[C@@H](O)C[C@H](O)[C@@H]2[C@H]1CC[C@@H]1C[C@@H](O)CC(=O)O1,161 to 163
18,Clc1ccc(-c2onc3c(CBr)cccc23)c(Cl)c1,108 to 110
19,Cc1c(NC(=O)c2ccc(-c3ccc(F)cc3)c(F)c2)ccc2cc(CN3CCCCCC3)cnc12,162 to 163
20,Cc1ccc(C(O)(c2ccc(C)cc2)[C@H](C)n2ccnc2)cc1,194 to 196
21,CCOC(=O)c1[nH]c(C)c(C)c1OCCCCCl,58 to 60
22,COc1ccc(N2CCN(c3c(C)c(C)c4c(c3C)C(C)(O)C(C)(C)O4)CC2)cc1 (configuration not stated),139 to 141
23,N#Cc1ccc(C(F)(F)C(F)(F)c2ccccc2)cc1,118 to 123
24,Fc1ccc(-c2ncn(C3CCNCC3)c2-c2ccnc(Oc3ccc(Oc4ccccc4)cc3)n2)cc1,174 to 175
25,CC(=O)N1CCC(c2ccc(S(=O)(=O)Cl)cc2)CC1,133 to 134
